These are literature values, as cited in publication PMC9516332 (Frontiers in Oncology, 2022).

The target of data set [1] is T1, panel of 255 wild-type kinases (Homo sapiens, UniProt Q9UF33).
T1 sequence (Q9UF33 23-1036): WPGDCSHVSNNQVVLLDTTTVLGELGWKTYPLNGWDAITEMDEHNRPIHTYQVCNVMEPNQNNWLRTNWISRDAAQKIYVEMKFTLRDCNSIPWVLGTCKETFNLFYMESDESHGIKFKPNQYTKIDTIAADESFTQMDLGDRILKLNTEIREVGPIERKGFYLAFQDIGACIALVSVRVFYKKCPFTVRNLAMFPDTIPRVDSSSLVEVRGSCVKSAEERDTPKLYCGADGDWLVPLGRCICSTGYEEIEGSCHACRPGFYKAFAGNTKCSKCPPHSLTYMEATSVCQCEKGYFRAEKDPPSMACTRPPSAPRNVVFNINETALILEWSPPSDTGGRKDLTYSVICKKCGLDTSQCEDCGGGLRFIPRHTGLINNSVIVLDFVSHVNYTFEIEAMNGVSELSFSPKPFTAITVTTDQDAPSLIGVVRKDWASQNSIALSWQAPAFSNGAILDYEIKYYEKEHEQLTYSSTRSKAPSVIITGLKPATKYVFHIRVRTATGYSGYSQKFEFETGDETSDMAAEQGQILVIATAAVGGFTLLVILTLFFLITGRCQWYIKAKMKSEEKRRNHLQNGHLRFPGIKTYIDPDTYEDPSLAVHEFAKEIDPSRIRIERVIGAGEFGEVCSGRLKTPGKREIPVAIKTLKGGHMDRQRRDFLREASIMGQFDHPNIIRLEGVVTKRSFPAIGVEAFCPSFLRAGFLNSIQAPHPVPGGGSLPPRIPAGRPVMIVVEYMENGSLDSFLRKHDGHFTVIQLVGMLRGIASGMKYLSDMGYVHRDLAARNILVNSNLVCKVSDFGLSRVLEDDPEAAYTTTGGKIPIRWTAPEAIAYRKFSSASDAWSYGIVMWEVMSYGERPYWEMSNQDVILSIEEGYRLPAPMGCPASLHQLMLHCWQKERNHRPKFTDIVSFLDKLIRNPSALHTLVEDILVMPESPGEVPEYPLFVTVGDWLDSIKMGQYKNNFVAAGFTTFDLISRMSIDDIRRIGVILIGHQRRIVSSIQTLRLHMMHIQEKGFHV
As to conditions: kinase EPHA6; 1 µmol/L single concentration; ref DOI: 10.1371/journal.pone.0092146; cited from earlier work.

Data set [2] addresses panel of 255 wild-type kinases (Homo sapiens, UniProt P11802). The following applies: CDK4/CycD3 kinase assay; 1 µmol/L single concentration; ref DOI: 10.1371/journal.pone.0092146; cited from earlier work.
The target in data set [3] is T2, panel of 255 wild-type kinases (Homo sapiens, UniProt Q8NE63).
T2 sequence (Q8NE63 1-616): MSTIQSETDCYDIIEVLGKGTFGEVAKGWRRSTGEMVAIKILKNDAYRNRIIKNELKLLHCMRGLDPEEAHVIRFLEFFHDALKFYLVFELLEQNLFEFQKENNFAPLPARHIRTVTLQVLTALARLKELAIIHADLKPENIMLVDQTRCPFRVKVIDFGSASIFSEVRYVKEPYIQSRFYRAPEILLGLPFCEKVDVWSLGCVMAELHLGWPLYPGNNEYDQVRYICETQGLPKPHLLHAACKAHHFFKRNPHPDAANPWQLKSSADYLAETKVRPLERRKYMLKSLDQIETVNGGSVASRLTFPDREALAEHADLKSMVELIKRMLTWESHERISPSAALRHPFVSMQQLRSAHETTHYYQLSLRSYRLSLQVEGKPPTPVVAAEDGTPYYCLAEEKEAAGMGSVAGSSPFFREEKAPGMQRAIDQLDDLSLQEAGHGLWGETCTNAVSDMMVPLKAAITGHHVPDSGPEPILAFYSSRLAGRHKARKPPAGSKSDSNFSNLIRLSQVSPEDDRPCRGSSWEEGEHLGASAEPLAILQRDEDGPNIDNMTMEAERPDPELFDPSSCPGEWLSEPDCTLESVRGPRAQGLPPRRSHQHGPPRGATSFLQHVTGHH
The following applies: kinase HIPK4; 1 µmol/L single concentration; ref DOI: 10.1371/journal.pone.0092146; cited from earlier work.

In data set [4] the target is panel of 255 wild-type kinases (Homo sapiens, UniProt P57059). The following applies: kinase SIK; 1 µmol/L single concentration; ref DOI: 10.1371/journal.pone.0092146; cited from earlier work.
For data set [5], the target named is panel of 255 wild-type kinases (Homo sapiens, UniProt Q15303). The following applies: kinase HER4; 1 µmol/L single concentration; ref DOI: 10.1371/journal.pone.0092146; cited from earlier work.
Data set [6] deals with panel of 255 wild-type kinases (Homo sapiens, UniProt P23458). The following applies: kinase JAK1; 1 µmol/L single concentration; ref DOI: 10.1371/journal.pone.0092146; cited from earlier work.
In data set [7] the target is T3, panel of 255 wild-type kinases (Homo sapiens, UniProt Q9BXA7).
T3 sequence (Q9BXA7 1-367): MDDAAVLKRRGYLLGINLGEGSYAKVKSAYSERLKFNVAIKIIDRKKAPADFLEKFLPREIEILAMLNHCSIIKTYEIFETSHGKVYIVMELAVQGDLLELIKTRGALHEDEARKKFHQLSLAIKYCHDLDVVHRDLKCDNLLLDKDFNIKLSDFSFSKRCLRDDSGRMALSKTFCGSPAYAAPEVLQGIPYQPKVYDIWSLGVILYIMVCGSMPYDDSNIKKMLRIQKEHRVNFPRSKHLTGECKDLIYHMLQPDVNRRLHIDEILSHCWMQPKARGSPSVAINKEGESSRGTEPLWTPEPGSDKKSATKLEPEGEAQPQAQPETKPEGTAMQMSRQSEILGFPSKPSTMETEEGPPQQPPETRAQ
As to conditions: kinase TSSK1; 1 µmol/L single concentration; ref DOI: 10.1371/journal.pone.0092146; cited from earlier work.

Regarding `CCCS(=O)(=O)Nc1ccc(F)c(C(=O)c2c[nH]c3ncc(-c4ccc(Cl)cc4)cc23)c1F` [vemurafenib], the “%-inhibition at 1 µmol/L, EPHA6” value in data set [1] is given as 37%. In data set [2], the “%-inhibition CDK4/CycD3” value is recorded as -3.26%. Moreover, in data set [3], the “%-inhibition at 1 µmol/L, HIPK4” value is given as -0.437%. Further, the “%-inhibition at 1 µmol/L, SIK” value in data set [4] was 24%. Also, the “%-inhibition at 1 µmol/L, HER4” value in data set [5] is 11%. Besides, the “%-inhibition at 1 µmol/L, JAK1” value in data set [6] is 46%. Further, the “%-inhibition at 1 µmol/L, TSSK1” value in data set [7] is listed as -4%.
